# According to the supplement of paper PMC13380429:
# Legend:
# Conditions in all cases: 72 h
# [1] = test system: Caco-2; assay: cell viability relative to DMSO; higher = less toxic
# [2] = test system: Calu-3; assay: as above
# [3] = test system: HepG2; assay: as above
# [4] = test system: U2OS; assay: as above
# [5] = test system: Vero E6; assay: as above
# [6] = test system: Caco-2; assay: relative viability EC50 (midpoint between 100% and the lowest measured viability); higher = less toxic
# [7] = test system: Calu-3; assay: as above
# [8] = test system: HepG2; assay: as above
# [9] = test system: U2OS; assay: as above
# [10] = test system: Vero E6; assay: as above
# [11] = test system: Caco-2; assay: drug sensitivity score (DSS) for viability; higher = more toxic; extreme values may be limits of the assay
# [12] = test system: Calu-3; assay: as above
# [13] = test system: HepG2; assay: as above
# [14] = test system: U2OS; assay: as above
# [15] = test system: Vero E6; assay: as above
Structure (SMILES),cell viability ([1]; 1 nM) [%],cell viability ([1]; 10 nM) [%],cell viability ([1]; 100 nM) [%],cell viability ([1]; 1000 nM) [%],cell viability ([1]; 10000 nM) [%],cell viability ([2]; 1 nM) [%],cell viability ([2]; 10 nM) [%],cell viability ([2]; 100 nM) [%],cell viability ([2]; 1000 nM) [%],cell viability ([2]; 10000 nM) [%],cell viability ([3]; 1 nM) [%],cell viability ([3]; 10 nM) [%],cell viability ([3]; 100 nM) [%],cell viability ([3]; 1000 nM) [%],cell viability ([3]; 10000 nM) [%],cell viability ([4]; 1 nM) [%],cell viability ([4]; 10 nM) [%],cell viability ([4]; 100 nM) [%],cell viability ([4]; 1000 nM) [%],cell viability ([4]; 10000 nM) [%],cell viability ([5]; 1 nM) [%],cell viability ([5]; 10 nM) [%],cell viability ([5]; 100 nM) [%],cell viability ([5]; 1000 nM) [%],cell viability ([5]; 10000 nM) [%],relative viability EC50 [6] [µM],relative viability EC50 [7] [µM],relative viability EC50 [8] [µM],relative viability EC50 [9] [µM],relative viability EC50 [10] [µM],drug sensitivity score [11],drug sensitivity score [12],drug sensitivity score [13],drug sensitivity score [14],drug sensitivity score [15]
O=C(O)c1ccccc1C(=O)Nc1ccc(S(=O)(=O)Nc2nccs2)cc1 [phthalylsulfathiazole],106,93.9,94.1,102,93.7,105,86.8,106,107,107,87.5,107,115,111,112,97.9,98,102,96.8,99.7,92.2,98.9,94.9,94.5,108,> 10,> 10,> 10,> 10,> 10,0,0,0,0,0
O=C1CC[C@@H](C(=O)N2CSC[C@H]2C(=O)O)N1 [pidotimod],102,91.6,106,102,92.7,97.4,104,97.3,96,102,98.4,101,101,105,106,93.9,93.3,101,99.9,106,97.8,101,94.8,101,107,> 10,> 10,> 10,> 10,> 10,0,0,0,0,0
CN[C@@H](C)CC1CCCCC1 [propylhexedrine],88,111,86,79.4,102,97.4,104,104,90.2,97.9,102,101,99.3,97.8,94.1,104,99.6,100,99.2,100,99.2,110,106,104,95.7,> 10,> 10,> 10,> 10,> 10,0,0,0,0,0
